Reference: patent US12156917B2, “CNP prodrugs with carrier attachment at the ring moiety” (ASCENDIS PHARMA GROWTH DISORDERS A/S, priority 2016, dated 2024)
Bridge positions count the residues as written; N and C are the ends. Ends that are not written are not given here.

Experiments:
[1] = tested on: Crl:CD1(ICR) mice; assay: Evaluation of cardiovascular effects in the conscious telemetered mouse (subcutaneous administration); format: in vivo
Method: Male Crl:CD1(ICR) mice (age range 8-13 weeks and body weight range 27.3-35.6 g at start of dosing) were surgically implanted with a TA11PA-C10 telemetry transmitter (Data Sciences International (DSI)) in the carotid artery. The body of the transmitter was placed subcutaneously in the lateral flank of the mouse. The mice were dosed subcutaneously in a latin square crossover design with at least 72 hours between dosing occasions. […] At least four mice were included at each dose level. Blood pressure (systolic (SAP), diastolic (DAP) and mean (MAP) and heart rate (HR, derived from blood pressure), were recorded using a digital data capture system linked with a DSI™ Ponemah data acquisition and analysis system. The capture system allowed recording of the cardiovascular parameters whilst the mice were in individual cages. On the day of each test session the animals were weighed and a predose recording was performed for at least 60 min prior to dosing. Each mouse was returned to the home cage and the cardiovascular parameters were recorded for approximately 48 hours postdose. Blood pressure and HR were reported at the following time points: −30, −20, −10, 5, 15 and 30 min postdose and 1, 2, 6, 12, 18, 24, 30, 36, 42 and 48 hours postdose. Each time point was presented as the average value of five minute's recording prior to the time point. The monitoring period was selected to cover exposure to the test items both prior to and after Tnax.

[2] = doses up to 15 μg/kg, healthy volunteers; cited from earlier work
[3] = in vivo; cited from earlier work

CC[C@H](C)[C@@H]1NC(=O)[C@H](CCCNC(=N)N)NC(=O)[C@H](CC(=O)O)NC(=O)[C@H](CC(C)C)NC(=O)[C@H](CCCCN)NC(=O)[C@H](CC(C)C)NC(=O)CNC(=O)[C@H](Cc2ccccc2)NC(=O)[C@@H](NC(=O)CNC(=O)[C@H](CCCCN)NC(=O)[C@H](CO)NC(=O)[C@H](CC(C)C)NC(=O)CNC(=O)[C@H](CCCCN)NC(=O)[C@H](CCCCN)NC(=O)[C@H](CC(N)=O)NC(=O)[C@H](C)NC(=O)CNC(=O)[C@H](CCCCN)NC(=O)[C@H](Cc2ccc(O)cc2)NC(=O)[C@H](CCCCN)NC(=O)[C@H](CCCNC(=N)N)NC(=O)[C@H](C)NC(=O)[C@H](CC(N)=O)NC(=O)[C@@H]2CCCN2C(=O)[C@H](Cc2c[nH]cn2)NC(=O)[C@H](CCC(=O)O)NC(=O)[C@H](CCC(N)=O)NC(=O)[C@@H](N)CC(C)C)CSSC[C@@H](C(=O)O)NC(=O)CNC(=O)[C@H](CC(C)C)NC(=O)CNC(=O)[C@H](CO)NC(=O)[C@H](CCSC)NC(=O)[C@H](CO)NC(=O)CNC1=O [CNP-38]
MAP predose (mean±SD) ([1]; predose, n = 4): 106.8 ± 13.4 mmHg | heart rate (HR) ([1]; sc, 800 μg CNP-38 eq/kg, up to 48 hours postdose): not impacted | MAP 5 min post dose (mean±SD) ([1]; sc, 800 μg CNP-38 eq/kg, n = 4): 102.0 ± 7.5 mmHg | MAP 15 min post dose (mean±SD) ([1]; sc, 800 μg CNP-38 eq/kg, n = 4): 89.5 ± 29.4 mmHg | MAP 30 min post dose (mean±SD) ([1]; sc, 800 μg CNP-38 eq/kg, n = 4): 99.5 ± 25.2 mmHg

BMN-111: modified recombinant human C-type Natriuretic Peptide; 17 amino acids added to form a 39 amino acid CNP analog (PGQEHPNARKYKGANKKGLSKGCFGLKLDRIGSMSGLGC; disulfide 23-39; chains of the INN, looked up)
blood pressure effect [2]: mild hypotension | half-life [3]: 20 min
